# Assays:
# DU145 (HLA-A2−) = experiment: LDH-release cytotoxicity assay of STEAP-specific CTL against HLA-A2-negative control cell line; assay type: cell-based, human; details: CTL specific for the peptide; 4-hour LDH-release assay
# Protocol: (§1) It was tested whether the STEAP-derived peptides can induce potent CTL capable of recognizing and killing prostate cancer cells in vitro. CTL lines selected for their ability to lyse peptide-pulsed target cells were used as effectors in LDH-release cytotoxicity assays against the cancer cell lines. The HLA-A2+ cancer cell line LnCAP was used, with the HLA-A2−negative cancer cell line DU145 as a control (Table 29).
# [1] = tested on: K562-A2 cells pulsed with STEAP peptide; experiment: In vitro induction of STEAP peptide-specific CTL, LDH-release cytotoxicity assay; details: for Percent LDH released from K562-A2 pulsed with peptide: K562-A2 pulsed with corresponding STEAP peptide 2 hours at 37° C.; for Percent LDH released from K562-A2 pulsed with peptide / Percent LDH released from K562-A2: CTL specific for the peptide, 4-hour LDH-release assay; for Induction of peptide-specific CTL: in vitro immunization of PBMC; for Percent LDH released from K562-A2: non-pulsed K562-A2 targets
# LnCap (HLA-A2+) = experiment: LDH-release cytotoxicity assay of STEAP-specific CTL against prostate cancer cell line; assay type: cell-based, human; details: CTL specific for the peptide; 4-hour LDH-release assay
# Protocol: as §1
# [2] = tested on: K562-A2 cells pulsed with STEAP peptide; experiment: Blocking of CTL lysis with antibodies BB7.2 / IVA12, LDH-release assay; assay type: cell-based, human; details: for Percent LDH released from K562-A2 pulsed +IVA12: anti-HLA class II antibody IVA12 added to peptide-pulsed targets before 4-hour LDH-release assay; for Percent LDH released from K562-A2 pulsed +BB7.2: anti-HLA-A2 antibody BB7.2 added to peptide-pulsed targets before 4-hour LDH-release assay
# Source text: As an additional control the anti-HLA class II antibody IVA12 was used. With these experiments, it was confirmed that the STEAP-specific CTL can recognize and kill target cells in a class I-restricted fashion (Table 30).
# T2 cells = experiment: IFNγ release by CTL (ELISA) after incubation with peptide-loaded T2 cells; assay type: cell-based, human; details: CTL elicited with the corresponding HER2/neu peptide, 20 h, 10^5 CTL/well
# Protocol: In interferon gamma-release assays, 10^5 HER2/neu-specific CTL were co-incubated with 10^5 peptide-loaded T2 cells for 20 hours at 37° C. The concentrations of human interferon gamma in co-cultured supernatants were then determined by ELISA.
# [3] = tested on: ICP47-transfected cells MCF7; experiment: Functional blockade of TAP by ICP47, 51Cr-release from peptide-loaded cells; assay type: cell-based, human; details: CTL reactive against the corresponding HER2/neu peptide, 3 days after peptide loading, 6-hour assay
# Source text: Another aspect in these studies was to determine the mechanisms of enhancement of the antigen presentation by the fusion peptides in human tumor cell lines. Therefore, a new test system was developed utilizing the Herpes Simplex virus (HSV) protein ICP47. ICP47 is a cytoplasmic protein, which interferes with antigen presentation by physically associating with TAP within the cell and inhibiting peptide transport across the ER-membrane. By transfecting the ICP47 gene into several cancer cell lines a novel system for screening different fusion peptides for TAP-independent translocation of peptide antigens through the ER-membrane was generated.
# The expression of these antigens was detected by ^51Cr-release assays.
# [4] = tested on: breast cancer cells MDA-MB-231; experiment: IFNγ release by CTL (ELISA) after incubation with peptide-loaded MDA-MB-231 cells; assay type: cell-based, human; details: CTL elicited with the corresponding HER2/neu peptide, 20 h, 10^5 CTL/well
# Protocol: In interferon gamma release assays, 10^5 HER2/neu-specific CTL were co-incubated with 10^5 peptide-loaded tumor cells for 20 hours at 37° C. The concentration of human interferon gamma in co-cultured supernatants was then determined by ELISA.
Substance,Percent LDH released from DU145 (HLA-A2−) (DU145 (HLA-A2−)) [%],Percent LDH released from K562-A2 pulsed with peptide [1] [%],Induction of peptide-specific CTL [1],Percent LDH released from K562-A2 [1] [%],Induction of peptide-specific CTL in patients with prostate cancer ([1]; number of patients),Percent LDH released from LnCap (HLA-A2+) (LnCap (HLA-A2+)) [%],Percent LDH released from K562-A2 pulsed +IVA12 [2] [%],Percent LDH released from K562-A2 pulsed +BB7.2 [2] [%],"Release of IFNγ by CTL, T2 cells loaded with the peptide (T2 cells; Day 1 after peptide loading) [pg/mL]","Release of IFNγ by CTL, T2 cells loaded with the peptide (T2 cells; Day 3 after peptide loading) [pg/mL]","Release of IFNγ by CTL, T2 cells loaded with the peptide (T2 cells; Day 5 after peptide loading) [pg/mL]","Release of IFNγ by CTL, T2 cells loaded with the peptide (T2 cells; Day 8 after peptide loading) [pg/mL]",Percent 51Cr Released From ICP47-transfected MCF7 cells loaded with the construct ([3]; E:T 20:1) [%],Percent 51Cr Released From ICP47-transfected MCF7 cells loaded with the construct ([3]; E:T 40:1) [%],"Release of IFNγ by CTL, MDA-MB-231 cells loaded with the peptide ([4]; Day 1 after peptide loading) [pg/mL]","Release of IFNγ by CTL, MDA-MB-231 cells loaded with the peptide ([4]; Day 3 after peptide loading) [pg/mL]","Release of IFNγ by CTL, MDA-MB-231 cells loaded with the peptide ([4]; Day 5 after peptide loading) [pg/mL]","Release of IFNγ by CTL, MDA-MB-231 cells loaded with the peptide ([4]; Day 8 after peptide loading) [pg/mL]"
LLNWAYQQV (listed as Homo sapiens) [STEAP192-200],18,56,induced potent peptide-specific CTL,8,three out of three,43,30,7,,,,,,,,,,
LLSFFFAVL (listed as Homo sapiens) [STEAP166-174],4,43,induced potent peptide-specific CTL,3,,65,47,11,,,,,,,,,,
M R IISAVVGIL A A V C S A (MRIISAVVGILAAVCSA) [HER654-662-IN-ES],,,,,,,,,2929,2773,1699,671,2,2,2727,2666,1708,667
MRYMILGLLALAAVCSA IISAVVGIL (MRYMILGLLALAAVCSAIISAVVGIL) [ES-HER654-662],,,,,,,,,2667,2518,1245,581,2,3,2767,2622,1445,578
MTNKCLLQIALLLCFSTTALS IISAVVGIL (MTNKCLLQIALLLCFSTTALSIISAVVGIL) [IS-HER654-662],,,,,,,,,2590,1990,1557,615,3,5,2678,1974,1604,628
YLPGVIAAI (listed as Homo sapiens) [STEAP130-138],−1,63,induced potent peptide-specific CTL,1,,53,37,2,,,,,,,,,,
YLPGVIAAV [STEAP130-138 - 9V],−2,53,induced potent peptide-specific CTL,1,,68,47,1,,,,,,,,,,
YLWGVIAAI [STEAP130-138 - 3W],−2,63,induced potent peptide-specific CTL,4,,69,64,5,,,,,,,,,,

# — patent US20080044484A1, “Use of polymeric nanoparticles for vaccine delivery” (THE REGENTS OF THE UNIVERSITY OF CALIFORNIA, priority 2004, published 2008)
